Experimental findings from US9216991B2 (Ares Trading S.A., priority 2012, dated 2015) are described below.

In general, melting point refers to the temperature of the solid-liquid transition. What is called IC50 is the concentration at which inhibition is half-maximal.

Structures are written as SMILES. Counter-ions that a name gives are not always drawn. Where only a bound is given, the exact number is not on record here.

Data set [1] addresses T1, IRAK4 (Homo sapiens, UniProt Q9NWZ3).
T1 construct: His (N); TEV cleavage site (N)
T1 sequence (Q9NWZ3 1-460): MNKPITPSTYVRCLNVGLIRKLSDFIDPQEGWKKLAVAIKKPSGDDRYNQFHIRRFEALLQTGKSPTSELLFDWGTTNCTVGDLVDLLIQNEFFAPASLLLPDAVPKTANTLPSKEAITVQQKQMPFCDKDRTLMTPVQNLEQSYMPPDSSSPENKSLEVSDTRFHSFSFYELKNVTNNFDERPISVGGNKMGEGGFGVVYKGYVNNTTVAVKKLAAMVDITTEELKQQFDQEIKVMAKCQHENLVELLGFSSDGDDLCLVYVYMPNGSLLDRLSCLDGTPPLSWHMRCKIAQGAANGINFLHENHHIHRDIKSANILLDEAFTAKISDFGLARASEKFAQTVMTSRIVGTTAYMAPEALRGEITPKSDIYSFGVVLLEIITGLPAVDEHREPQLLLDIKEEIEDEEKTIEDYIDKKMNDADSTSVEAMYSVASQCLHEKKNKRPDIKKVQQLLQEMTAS
In words: IRAK4 Enzymatic Assay. In kind it is biochemical. As to conditions: His-TEV-IRAK4 20 ng/well, ATP 2 μM, STK1-biotin peptide 300 nM, 3 hours at 30° C., FlashPlate radioactivity. The gist of the method: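 Recombinant His-TEV-tagged IRAK4 (20 ng/well) phosphorylates biotinylated STK1 peptide (300 nM) with 2 μM ATP plus [^33P]ATP, 3 h at 30 °C in pH 7.0 HEPES buffer with MgCl2 and MnCl2; compounds tested 20 μM to 1 nM. Reaction stopped with EDTA; incorporated radioactivity counted on streptavidin FlashPlates.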

Molecule `CN1CC2CC1CN2C(=O)[C@H]1CC[C@H](n2cc(-c3cnc(-c4cccc(-c5cnn(C)c5)c4)nc3)cn2)CC1` (stereo partly drawn) (as salt: hydrobromid) [Example 278, (5-Methyl-2,5-diaza-bicyclo[2.2.1]hept-2-yl)-trans-[4-(-4-{2-[3-(1-methyl-1H-pyrazol-4-yl)-phenyl]-pyrimidin-5-yl}-pyrazol-1-yl)-cyclohexyl]-methanone hydrobromide] came in with a melting point of 50.3 to 55 °C.

As for `Cn1cc(-c2cccc(-c3ncc(-c4cnn([C@@H]5CCC[C@@H](O)C5)c4)cn3)c2)cn1` (relative stereo) [Example 290, Trans-3-(4-{2-[3-(1-Methyl-1H-pyrazol-4-yl)-phenyl]-pyrimidin-5-yl}-pyrazol-1-yl)-cyclohexanol], the melting point was in the range of 207.5 to 212 °C. The concentration for half-maximal inhibition (IC50) in data set [1] was 100 to 1000 nM.

`Cn1cc(-c2cccc(-c3ncc(-c4cnn([C@H]5CC[C@]6(CO)COC[C@]6(O)C5)c4)cn3)c2)cn1` (single isomer, unassigned) [Example 280] came in with a melting point of 190.1 to 201.7 °C. Further, the IC50 in data set [1] was below 100 nM.

As for `Cn1cc(-c2cccc(-c3ncc(-c4cnn([C@@H]5CC[C@@]6(CO)COC[C@@]6(O)C5)c4)cn3)c2)cn1` (single isomer, unassigned) [Example 281], the melting point is 191.4 to 199.7 °C. Also, the IC50 in data set [1] was 100 to 1000 nM.

On to `Cn1cc(-c2cccc(-c3ncc(-c4cnn(CCO)c4)cn3)c2)cn1` [Example 23, 2-(4-{2-[3-(1-Methyl-1H-pyrazol-4-yl)-phenyl]-pyrimidin-5-yl}-pyrazol-1-yl)-ethanol], for which the melting point fell in the range of 234 to 236 °C. The IC50 in data set [1] lay in the range of 100 to 1000 nM.

Turning to `Cn1cc(-c2cnc(-c3cccc(-c4cnn(C)c4)c3)nc2)cn1` [Example 32, 5-(1-Methyl-1H-pyrazol-4-yl)-2-[3-(1-methyl-1H-pyrazol-4-yl)-phenyl]-pyrimidine], the melting point was in the range of 199 to 200 °C. The IC50 in data set [1] lay within 100 to 1000 nM.

Regarding `Cn1cc(-c2cccc(-c3ncc(-c4cnn(CC(=O)N5CCCC(O)C5)c4)cn3)c2)cn1` (centres unmarked) [Example 52, 1-(3-Hydroxy-piperidin-1-I)-2-(4-{2-[3-(1-methyl-1H-pyrazol-4-yl)-phenyl]-pyrimidin-5-yl}-pyrazol-1-yl)-ethanone], the melting point fell in the range of 198 to 200 °C. Besides, the IC50 in data set [1] was in the range of 100 to 1000 nM.

For the molecule `Cn1cc(-c2cccc(-c3ncc(-c4cnn(CC(=O)N5CC(O)C5)c4)cn3)c2)cn1` [Example 73, 1-(3-Hydroxy-azetidin-1-yl)-2-(4-{2-[3-(1-methyl-1H-pyrazol-4-yl)-phenyl]-pyrimidin-5-yl}-pyrazol-1-yl)-ethanone], the melting point lay in the range of 177 to 181 °C. In addition, in data set [1], the IC50 was in the range of 100 to 1000 nM.

`Cn1cc(-c2cccc(-c3ncc(-c4cnn(CC(=O)N5CCC(O)C5)c4)cn3)c2)cn1` (centres unmarked) [Example 74, 1-(3-Hydroxy-pyrrolidin-1-yl)-2-(4-{2-[3-(1-methyl-1H-pyrazol-4-yl)-phenyl]-pyrimidin-5-yl}-pyrazol-1-yl)-ethanone] had a melting point of 237 to 238 °C. For the same molecule, the IC50 in data set [1] was 100 to 1000 nM.

With `CN1C[C@]2(CC[C@H](n3cc(-c4cnc(-c5cccc(-c6cnn(C)c6)c5)nc4)cn3)CC2)CC1=O` [Example 260, trans-2-Methyl-8-(4-{2-[3-(1-methyl-1H-pyrazol-4-yl)-phenyl]-pyrimidin-5-yl}-pyrazol-1-yl)-2-aza-spiro[4.5]decan-3-one], the IC50 in data set [1] was below 100 nM.

Regarding `Cn1cc(-c2cccc(-c3ncc(-c4cnn(C5CCC(C(=O)N6CCO[C@H](CO)C6)CC5)c4)cn3)c2)cn1` (stereo partly drawn) [Example 261, ((S)-2-Hydroxymethyl-morpholin-4-yl)-[4-((S)-4-{2-[3-(1-methyl-1H-pyrazol-4-yl)-phenyl]-pyrimidin-5-yl}-pyrazol-1-yl)-cyclohexyl]-methanone], in data set [1], the IC50 was below 100 nM.

For the molecule `CN1C[C@]2(CC[C@@H](n3cc(-c4cnc(-c5cccc(-c6cnn(C)c6)c5)nc4)cn3)CC2)CC1=O` [Example 262, cis-2-Methyl-8-(4-{2-[3-(1-methyl-1H-pyrazol-4-yl)-phenyl]-pyrimidin-5-yl}-pyrazol-1-yl)-2-aza-spiro[4.5]decan-3-one], the IC50 in data set [1] was below 100 nM.

As for `CC(=O)N1CCC(n2cc(-c3cnc(-c4cccc(-c5cnn(C)c5)c4)nc3)cn2)C(F)C1` (stereo not drawn) [Example 263, Cis-1-[3-Fluoro-4-(4-{2-[3-(1-methyl-1H-pyrazol-4-yl)-phenyl]-pyrimidin-5-yl}-pyrazol-1-yl)-piperidin-1-yl]-ethanone], in data set [1], the IC50 was below 100 nM.

For the molecule `Cn1cc(-c2cccc(-c3ncc(-c4cnn(C5CCC(C(=O)N6CCO[C@@H](CO)C6)CC5)c4)cn3)c2)cn1` (stereo partly drawn) [Example 266, ((R)-2-Hydroxymethyl-morpholin-4-yl)-[4-((S)-4-{2-[3-(1-methyl-1H-pyrazol-4-yl)-phenyl]-pyrimidin-5-yl}-pyrazol-1-yl)-cyclohexyl]-methanone], in data set [1], the half-inhibitory concentration (IC50) is below 100 nM.

For the molecule `Cn1cc(-c2cccc(-c3ncc(-c4cnn(C5CCOC6(CCOCC6)C5)c4)cn3)c2)cn1` (centres unmarked) [Example 267, 5-[1-(1,9-Dioxa-spiro[5.5]undec-4-yl)-1H-pyrazol-4-yl]-2-[3-(1-methyl-1H-pyrazol-4-yl)-phenyl]-pyrimidine], in data set [1], the IC50 was below 100 nM.

Turning to `Cn1cc(-c2cccc(-c3ncc(-c4cnn([C@@H]5CCCN(S(C)(=O)=O)C5)c4)cn3)c2)cn1` [Example 268, 5-[(R)-1-(1-Methanesulfonyl-piperidin-3-yl)-1H-pyrazol-4-yl]-2-[3-(1-methyl-1H-pyrazol-4-yl)-phenyl]-pyrimidine], the half-maximal inhibitory concentration (IC50) in data set [1] is below 100 nM.

As for `CC(=O)N1CCC[C@@H](n2cc(-c3cnc(-c4cccc(-c5cnn(C)c5)c4)nc3)cn2)C1` [Example 269, 1-[3-((R)-4-{2-[3-(1-Methyl-1H-pyrazol-4-yl)-phenyl]-pyrimidin-5-yl}-pyrazol-1-yl)-piperidin-1-yl]-ethanone], the IC50 in data set [1] is below 100 nM.

With `Cn1cc(-c2cccc(-c3ncc(-c4cnn(C5CCN(C6CCCOC6)CC5)c4)cn3)c2)cn1` (centres unmarked) [Example 270, 2-[3-(1-Methyl-1H-pyrazol-4-yl)-phenyl]-5-{1-[1-(tetrahydro-pyran-3-yl)-piperidin-4-yl]-1H-pyrazol-4-yl}-pyrimidine], the IC50 in data set [1] is below 100 nM.

In the case of `Cn1cc(-c2cccc(-c3ncc(-c4cnn(C5CCOCC5CN5CCOCC5)c4)cn3)c2)cn1` (centres unmarked) [Example 271, 4-[4-(4-{2-[3-(1-Methyl-1H-pyrazol-4-yl)-phenyl]-pyrimidin-5-yl}-pyrazol-1-yl)-tetrahydro-pyran-3-ylmethyl]-morpholine], the IC50 in data set [1] was in the range of 1000 to 5000 nM.

With `CC1COCCC1N1CCC(n2cc(-c3cnc(-c4cccc(-c5cnn(C)c5)c4)nc3)cn2)CC1` (centres unmarked) [Example 275, 2-[3-(1-Methyl-1H-pyrazol-4-yl)-phenyl]-5-{1-[1-(3-methyl-tetrahydro-pyran-4-yl)-piperidin-4-yl]-1H-pyrazol-4-yl}-pyrimidine], in data set [1], the IC50 is below 100 nM.

Consider `Cn1cc(-c2cccc(-c3ncc(-c4cnn(C5C6COCC5CC(CO)C6)c4)cn3)c2)cn1` (centres unmarked) [Example 276, [9-(4-{2-[3-(1-Methyl-1H-pyrazol-4-yl)-phenyl]-pyrimidin-5-yl}-pyrazol-1-yl)-3-oxa-bicyclo[3.3.1]non-7-yl]-methanol], for which the IC50 in data set [1] was 100 to 1000 nM.

As to `CN1CC2CC1CN2C(=O)[C@H]1CC[C@H](n2cc(-c3cnc(-c4cccc(-c5cnn(C)c5)c4)nc3)cn2)CC1` (stereo partly drawn) [Example 278, (5-Methyl-2,5-diaza-bicyclo[2.2.1]hept-2-yl)-trans-[4-(-4-{2-[3-(1-methyl-1H-pyrazol-4-yl)-phenyl]-pyrimidin-5-yl}-pyrazol-1-yl)-cyclohexyl]-methanone hydrobromide], the IC50 in data set [1] was below 100 nM.

As for `CC(=O)N1CCC(n2cc(-c3cnc(-c4cccc(-c5cnn(C)c5)c4)nc3)cn2)C(F)(F)C1` (centres unmarked) [Example 284, 1-[3,3-Difluoro-4-(4-{2-[3-(1-methyl-1H-pyrazol-4-yl)-phenyl]-pyrimidin-5-yl}-pyrazol-1-yl)-piperidin-1-yl]-ethanone], the IC50 in data set [1] was below 100 nM.

Consider `Cn1cc(-c2cccc(-c3ncc(-c4cnn([C@H]5CC[C@]6(CCC(=O)N6C)CC5)c4)cn3)c2)cn1` [Example 285, Cis-1-Methyl-8-(4-{2-[3-(1-methyl-1H-pyrazol-4-yl)-phenyl]-pyrimidin-5-yl}-pyrazol-1-yl)-1-aza-spiro[4.5]decan-2-one], for which, in data set [1], the IC50 is below 100 nM.

Regarding `Cn1cc(-c2cccc(-c3ncc(-c4cnn([C@H]5CC[C@H](NCCO)CC5)c4)cn3)c2)cn1` [Example 289, 2-trans-[4-(4-{2-[3-(1-Methyl-1H-pyrazol-4-yl)-phenyl]-pyrimidin-5-yl}-pyrazol-1-yl)-cyclohexylamino]-ethano], the IC50 in data set [1] was below 100 nM.

For the molecule `Cc1nn(C2CCC(O)CC2)cc1-c1cnc(-c2cccc(-c3cnn(C)c3)c2)nc1` (centres unmarked) [Example 291, 4-(3-Methyl-4-{2-[3-(1-methyl-1H-pyrazol-4-yl)-phenyl]-pyrimidin-5-yl}-pyrazol-1-yl)-cyclohexanol], the half-inhibitory concentration (IC50) in data set [1] lay within 100 to 1000 nM.

For `Cn1cc(-c2ccc(F)c(-c3ncc(-c4cnn([C@H]5CC[C@H](O)CC5)c4)cn3)c2)cn1` [Example 292, 4-(4-{2-[2-Fluoro-5-(1-methyl-1H-pyrazol-4-yl)-phenyl]-pyrimidin-5-yl}-pyrazol-1-yl)-cyclohexanol], the IC50 in data set [1] was 100 to 1000 nM.
